According to PMC2862727 (Molecular immunology, 2010):
Entries after “also recorded” stand apart in the source; their conditions may differ.

What was measured:
[1] = test system: IL-1β production in THP-1 cells; experiment: IL-1β immunoblot of THP-1 cell lysates; conditions: for effect of inhibitor or antagonist alone on IL-1β generation: absence of receptor agonist, data not shown
[2] = test system: inflammatory mediators secreted by THP-1 cells; experiment: Cytokine antibody array of conditioned media from THP-1 cells; format: cell-based, human; conditions: 2 h, n = 3
[3] = test system: secreted IL-1β from THP-1 cells; experiment: ELISA of IL-1β secreted into media of THP-1 cells; format: cell-based, human; conditions: for secreted IL-1β in media: 2 h
[4] = target: β-AR mediating cAMP production in THP-1 cells (Homo sapiens, UniProt P08588); experiment: Iso-induced cAMP production in THP-1 cells, Schild regression analysis; format: cell-based; conditions: inhibition of Iso mediated cAMP production in THP-1 cells, n = 4
[5] = test system: specific ^125I-CYP binding sites on THP-1 membranes; conditions: one-site binding model, ref Talmadge, et al., 1993; cited from earlier work
[6] = test system: IL-1β production in primary human monocytes; experiment: IL-1β immunoblot of primary human monocyte lysates; format: cell-based; conditions: individual treatment (30 ng/mL LPS or 0.1 μM Iso alone), n = 3
[7] = test system: β-AR binding sites on THP-1 cell membranes; experiment: Saturation radioligand binding of 125I-CYP on crude THP-1 cell membranes; set-up: species or system human; conditions: THP-1 membranes, n = 6
[8] = 30 ng/mL LPS and 0.1 μM Iso simultaneously
[9] = individual treatment (30 ng/mL LPS or 0.1 μM Iso alone), n = 6, control 1.6 ± 0.5 pg/mL

β-AR mediating cAMP production in THP-1 cells, sequence (P08588 whole entry): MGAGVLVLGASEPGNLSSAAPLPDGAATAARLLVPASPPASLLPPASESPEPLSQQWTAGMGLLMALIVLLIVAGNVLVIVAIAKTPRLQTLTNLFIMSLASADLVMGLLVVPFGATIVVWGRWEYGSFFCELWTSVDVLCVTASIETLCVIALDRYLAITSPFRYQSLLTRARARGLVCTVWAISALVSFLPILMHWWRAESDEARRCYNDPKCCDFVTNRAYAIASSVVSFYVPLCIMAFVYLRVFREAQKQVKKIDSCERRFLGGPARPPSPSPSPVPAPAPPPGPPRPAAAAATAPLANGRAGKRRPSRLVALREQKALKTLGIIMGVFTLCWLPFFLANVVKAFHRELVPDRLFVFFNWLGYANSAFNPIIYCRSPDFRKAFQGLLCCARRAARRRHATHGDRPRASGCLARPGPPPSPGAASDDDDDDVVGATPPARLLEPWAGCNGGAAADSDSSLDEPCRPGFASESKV

Cl.Cl.O=S(=O)(NCCNCC=Cc1ccc(Br)cc1)c1cccc2cnccc12 [H-89, N-[2-(p-bromocinnamylamino)ethyl]-5-isoquinolinesulfonamide dihydrochloride]
effect of inhibitor or antagonist alone on IL-1β generation ([1]; THP-1 cells): did not alter responses | IL-1β produced, fold over LPS ([1]; THP-1 lysates, 100 nM H-89 pre-incubation then 30 ng/mL LPS plus 0.1 μM Iso (Fig 7), n = 6): 1.4±0.1 fold over LPS

CC(C)NCC(O)c1ccc(O)c(O)c1 (stereo not shown) [Iso, isoproterenol]
LPS mediated TNF-α expression versus LPS alone [2, 8]: qualitative loss; also recorded: decreases | soluble IL-1β versus LPS stimulation alone [2, 8]: qualitative increase | expression pattern of inflammatory mediators versus basal ([2]; 0.1 μM Iso only): no differences in the expression pattern | synergistic modulation of LPS mediated production of IL-1β ([1]; THP-1 cells, LPS plus Iso versus LPS alone): > 4 fold | difference in IL-1β released into media between LPS alone and LPS plus Iso [3]: > 4 fold | secreted IL-1β in media ([3]; 0.1 μM Iso plus 30 ng/mL LPS, n = 6): 76.3 ± 24.7 pg/mL | secreted IL-1β in media [3, 9]: 4.8 ± 1.4 pg/mL

Cn1cc(C(F)(F)F)nc1-c1ccc(OCC(O)CNCCOc2ccc(O)c(C(N)=O)c2)cc1 (stereo not shown) [CGP 20712A, 1-(2-((3-carbamoyl-4-hydroxy)phenoxy)ethylamino)-3-(4-(1-methyl-4-trifluoromethyl-2-imidazoylyl)phenoxy)-2-propanol methanesulfonate]
effect of inhibitor or antagonist alone on IL-1β generation ([1]; THP-1 cells): no qualitative changes

Cc1ccc(OCC(O)C(C)NC(C)C)c2c1CCC2 (racemic) [ICI 118,551, erythro-dl-1-(7-methylindan-4-yloxy)-3-isopropylaminobutan-2-ol]
Schild regression slope [4]: 1.0 ± 0.1 | Ki [5]: 46 nM | effect of inhibitor or antagonist alone on IL-1β generation ([1]; THP-1 cells): no qualitative changes

lipopolysaccharide [LPS]
expression of secreted IL-1β and TNF-α versus control ([2]; 30 ng/mL LPS only): qualitative increase | IL-1β produced, fold over basal [6]: 3.4 ± 1.8 fold | IL-1β produced, fold over basal ([1]; THP-1 lysates, individual treatment (30 ng/mL LPS or 0.1 μM Iso alone), 2 hr, n = 5): 12.1 ± 3.9 fold | secreted IL-1β in media [3, 9]: 16.9 ± 2.6 pg/mL

CC(C)(C)NCC(O)COc1cccc2[nH]c(C#N)c([125I])c12 (single isomer, unassigned; (-)) [^125I-CYP, (–)3-[^125I]iodocyanopindolol]
number of binding sites (Bmax) ([7]; labeled by 125I-CYP): 341 ± 77 fmol/mg protein

CC(C)(C)NCC(O)COc1cccc2[nH]c(C#N)c(I)c12 (single isomer, unassigned; (-)) [^125I-CYP, (–)3-[^125I]iodocyanopindolol]
Kd ([7]; read-out: equilibrium dissociation constant (Kd) of 125I-CYP, saturation binding): 0.0301 ± 0.0051 nM
